Measured values: patent US20250082655A1, “USE OF HETEROCYCLIC COMPOUND” (WUHAN CREATERNA SCIENCE AND TECHNOLOGY CO., LTD., priority 2022, published 2025)
Values joined by “and” are separate entries in the source; they are usually repeats but may differ in a detail not shown here. Identical values can stand only once.

System: citric acid-induced acute cough in guinea pigs
Assay: ATP-sensitized citric acid-induced acute cough model in guinea pigs (WBP system)
Assay type: in vivo, guinea pig
Details: for Total cough count (CCnt): within 10 minutes, Mean ± SEM, N = 12; for Change rate of total cough count: versus solvent group; for average cough times decreased compared to the solvent group: decrease; for antitussive effect (in words): compared to the solvent group
Procedure: • Male Hartley guinea pigs: Beijing Vital River Laboratory Animal Technology Co., Ltd; • 250 μM ATP solution: Sigma, catalog number A2383; • 0.5 M citric acid solution: Sigma, catalog number C2404; • DSI Buxco Whole Body Plethysmography (WBP) system instrument: manufacturer DSI, serial numbers 100249, 990171; • Electronic balance: Mettler Toledo, serial number B844687071.
• Solvent (10% (v/v) E-TPGS aqueous solution, pH 7.4±0.1): TPGS was heated and melted into a liquid in a water bath. 10 mL of TPGS was taken and then added to 85 mL of deionized water, and the mixture was stirred to form a homogeneous solution. The pH was adjusted to 7.4±0.1 using an appropriate concentration of HCl/NaOH. The final volume was made up to 100 mL with deionized water, and the mixture was stirred until visually homogeneous. The pH was checked, and if necessary, adjusted to 7.4±0.1 using an appropriate concentration of HCl/NaOH.
The administration formulation was prepared under yellow light conditions.
The required mass of the compound was accurately weighed into an appropriate container, and slowly added to a suitable container containing 80% of the final volume of the solvent (10% (v/v) E-TPGS aqueous solution, pH 7.4±0.1), and the mixture was stirred until visually homogeneous. The solvent was added to 90% of the final volume, and the mixture was stirred until visually homogeneous. If necessary, the pH was adjusted to 7.3-7.6 with an appropriate concentration of HCl/NaOH. If necessary, the formulation was subjected to ultrasonic treatment. The solvent was then added to the final volume, and the mixture was stirred until a visually clear and homogeneous solution was obtained.
After the preparation of the administration formulation was completed, the administration formulation was aliquoted into daily doses and stored in a refrigerator at 2-8° C., protected from light, and used within 10 days. Prior to administration, the formulation was removed from the refrigerator 30 minutes in advance, and stirred for 30 minutes at room temperature and protected from light until it reached room temperature.
Preparation of dextromethorphan: the required volume for administration was calculated based on the animal's body weight. The weighting amount of dextromethorphan (DM) was determined based on the administration volume and dose. The DM was accurately weighed and dissolved in 1×PBS (Phosphate Buffered Saline) with the calculated administration volume. The solution was mixed homogeneously by shaking until a clear solution was formed, and it was prepared freshly before use.
In the experiment, the solvent (10% (v/v) E-TPGS (Vitamin E Polyethylene Glycol Succinate)) and each test compound were administered to guinea pigs by gavage 3 hours prior to citric acid nebulization. The reference compound, dextromethorphan (DM), was administered to guinea pigs by gavage 40 minutes prior to citric acid nebulization (see Table 1 for details).
At the scheduled time, male Hartley guinea pigs (300-400 g) were placed in the respiratory volume plethysmography chamber of the DSI Buxco Whole Body Plethysmography (WBP) system. After an acclimation period of 3-5 minutes, a solution of ATP with a concentration of 250 μM was nebulized and sprayed into the chamber for 2 minutes. After a 3-minute interval, a solution of citric acid with a concentration of 0.5 M was administered for 5 minutes to induce coughing. From the start of citric acid nebulization, the WBP system recorded the total cough counts (CCnt) within 10 minutes and the cough incubation period (CIP, i.e., the time from the start of citric acid induction to the appearance of the first cough).

[1] = 30 mg/kg oral single dose 3 hours before citric acid nebulization
[2] = 30 mg/kg oral, 3 hours before citric acid nebulization
[3] = 30 mg/kg oral, 3 hours before citric acid

SMILES	Total cough count (CCnt) (3 mg/kg oral single dose 3 hours before citric acid nebulization)	Cough incubation period (CIP) (3 mg/kg oral, 3 hours before citric acid nebulization)	Change rate of total cough count (3 mg/kg oral, 3 hours before citric acid) [%]	average cough times decreased compared to the solvent group (3 mg/kg oral) [%]	Total cough count (CCnt) (10 mg/kg oral single dose 3 hours before citric acid nebulization)	Cough incubation period (CIP) (10 mg/kg oral, 3 hours before citric acid nebulization)	Change rate of total cough count (10 mg/kg oral, 3 hours before citric acid) [%]	average cough times decreased compared to the solvent group (10 mg/kg oral) [%]	Total cough count (CCnt) [1]	Cough incubation period (CIP) [2]	Change rate of total cough count [3] [%]	average cough times decreased compared to the solvent group (30 mg/kg oral) [%]	antitussive effect (in words)	Total cough count (CCnt) (63 mg/kg oral single dose 40 minutes before citric acid nebulization)	Cough incubation period (CIP) (63 mg/kg oral, 40 minutes before citric acid nebulization)	Change rate of total cough count (63 mg/kg oral, 40 minutes before citric acid) [%]
O=C(c1ccc(F)cc1C(F)(F)F)c1cnc2n1CCN(c1cnn(COP(=O)(O)O)c(=O)c1Cl)C2 [Compound 1, (5-chloro-4-(3-(4-fluoro-2-(trifluoromethyl)benzoyl)-5,6-dihydroimidazo[1,2-a]pyrazin-7(8H)-yl)-6-oxopyridazin-1(6H)-yl)methyl Dihydrogen Phosphate]	17.00 times and 17.00 ± 2.11 times	234.42 s and 234.42 ± 24.11 s	−20.93	20.93	13.42 times and 13.42 ± 1.18 times	283.67 s and 283.67 ± 42.98 s	−37.60	37.60	10.73 times and 10.73 ± 1.71 times	293.75 s and 293.75 ± 33.66 s	−50.11	50.11	good antitussive effect	–	–	–
O=c1[nH]ncc(N2CCc3c(ncnc3Oc3ccc(F)cc3C(F)(F)F)C2)c1Cl [Compound 2-1]	–	–	–	–	–	–	–	–	12.75 ± 1.86 times	290.08 s and 290.08 ± 43.61 s	−40.70	40.70	good antitussive efficacy	–	–	–
O=c1c(-c2ccc(O)cc2)coc2cc(O)cc(O)c12 [Compound 3-1]	–	–	–	–	–	–	–	–	11.83 ± 2.02 times	281.67 s and 281.67 ± 37.84 s	−44.96	44.96	good antitussive efficacy	–	–	–
COc1ccc2c(c1)[C@]13CCCC[C@@H]1[C@H](C2)N(C)CC3 [DM, dextromethorphan, reference compound]	–	–	–	–	–	–	–	–	–	–	–	–	–	12.17 times and 12.17 ± 2.76 ^c times	291.00 s and 291.00 ± 41.65 s	−43.41
